{
  "source": "patent US20030220415A1",
  "about": "“Heterocyclic amine diol compounds and their biocidal derivatives” (priority 2002, published 2003)",
  "test_system": "Staphylococcus aureus bacteria",
  "conditions": "1957 mg/L solution, chlorine-demand-free water pH 7, ambient temperature",
  "note": "Like-named read-outs stand apart in the source and are kept apart here.",
  "data": [
    {"smiles": "CC1(C)C(=O)N(CN(CCO)CCO)C(=O)N1Cl", "note": "[chlorinated heterocyclic amine diol, 1-chloro-3-[1-bis(N,N-2-hydroxyethyl)aminomethyl]-5,5-dimethyl-1,3-imidazolidin-2,4-dione]", "values": [
      {"measurement": "inactivation of Staphylococcus aureus", "setting": "contact time 30 min", "result": "> 5", "unit": "logs"},
      {"measurement": "inactivation of Staphylococcus aureus", "setting": "contact time 60 min", "result": "> 5", "unit": "logs"}
    ]}
  ]
}
